This note sets out measurements from patent US20260373036A1, “A PERSONAL CARE COMPOSITION” (Concpco, Inc., d/b/a UNILEVER, priority 2022, published 2026).

This data set relates to TXNRD1 (Thioredoxin reductase 1) gene. The data set is described as follows: TXNRD1 (thioredoxin reductase 1) gene expression in normal human epidermal keratinocytes (NHEK) by RT-PCR. The data set is classed as cell-based. As to conditions: 24 hours, normalized to YWHAZ, relative to blank control (1.0). The method, then:
The normal human epidermal keratinocytes (NHEK, Lot: NHS-2021-006) (Archgene Biotechnology, Shanghai, China) were incubated in medium together with or without actives for 24 hours. After incubation, the total RNA for each NHEK was extracted using Qiagen Mini RNeasy kit (Qiagen, Cat. 74106) according to manufacturer's protocol.
The extracted RNA was quantified using Nanodrop 2000 spectrometer (Thermo Fisher Scientific, Waltham, MA, US) and reverse transcribed to generate the template cDNA using the ABScript III RT Mast Mix (Cat. BK20428, ABclonal) according to manufacturer's protocol. Amplification of the gene encoding the TXNRD1 (Thioredoxin reductase 1) gene was performed with RT-PCR reagent (Universal SYBR Green Fast qPCR Mix kit, Cat.: RK21203, ABclonal) on the ABI Vii 7 Real-Time PCR Systems (Applied Biosystems, Thermo fisher scientific, Carlsbad, CA, USA). The Tyrosine 3-Monooxygenase/Tryptophan 5-Monooxygenase Activation Protein Zeta gene (YWHAZ) was selected as the housekeeping gene and all data on relative expression of the target genes was normalized to YWHAZ.

With `CCCCCCc1ccc(O)cc1O` [HR, 4-hexyl resorcinol], the fold induction at 5 µM (Homo sapiens, 5 μM of HR in medium, read-out: Fold change for gene expression TXNRD1) worked out at 1.

As to Lysine carboxymethyl cysteinate [LCC], the “Fold change for gene expression TXNRD1” value (0.05 wt % of LCC in medium) was determined as 1.2.
